Earlier results on one substance are cited in US20240251900A1, “PATCH FOR TARGETED DELIVERY OF HAIR COMPOSITION AND METHOD FOR APPLYING SAME” (Better Not Younger Corporation, priority 2022, published 2024).

This data set deals with hair follicle. Conditions: Capixyl techsheet page 38.

For the substance acetyl tetrapeptide-3, the “stimulation of hair growth versus market reference Minoxidil” value is given as “stimulate hair growth better than the market reference, Minoxidil”.
